Test results reported in PubChem BioAssay AID1626 (SRMLSC, 2009).

Test system: M. tuberculosis H37Rv growth inhibition
Assay: M. tuberculosis H37Rv growth inhibitors, H37Rv strain (AID 1626)
Conditions: for IC90: measured here: IC90 against H37Rv; for CC50: measured here: Vero cell cytotoxicity

| Compound | IC50 [µM] | IC90 [µM] | CC50 [µM] |
| --- | --- | --- | --- |
| CCCCCc1cc(=O)oc2c(C(CCN(CC)CC)c3ccc(OC)cc3)c(OC)cc(OC)c12 (stereo not drawn) | 9.08 | 11.7 | 13 |
| c1ccc(Nc2nc(-c3ccccn3)cs2)cc1 | 0.376 | 0.854 | > 40 |
| N=C(N)SCc1cn(-c2ccccc2)nc1-c1ccc(Br)cc1 | 6.8 | 9.39 | 14.6 |
| O=C(c1ccccc1)c1c2c(cc3sc4ccccc4[n+]13)-c1cccc3cccc-2c13 | 2.81 | 5.22 | 23.1 |
| COc1ccc(-c2c(C#N)c(SCC(=O)c3cc4ccccc4oc3=O)nc(C)c2C(=O)Nc2ccccc2)cc1 | 12.2 | 14.2 | 3.41 |
| COc1ccc2cc(C(c3nnnn3C3CCCC3)N3CCCCCC3)c3nnnn3c2c1 (stereo not drawn) | – | – | 15.1 |
| O=C(CCCSc1ccccc1)Nc1nc(-c2ccccn2)cs1 | 0.239 | 5.04 | > 40 |
| Clc1ccc(Nc2ncn[nH]2)c(Cl)c1 | 6.68 | > 100 | > 40 |
| O=C(CSc1nc2ccccc2o1)Nc1nc(-c2ccccc2)cs1 | 28.1 | > 100 | – |
| O=C(/C=C/c1cccc(Cl)c1)c1nc2ccccc2[nH]1 | 2.94 | 3.34 | 15.3 |
| Cn1c(NC(=O)c2ccccc2NC(=O)C(C)(C)C)nc2ccccc21 | – | – | > 40 |
| O=C1N(c2ccc3c(c2)OCCO3)C(c2ccccc2)C1(F)F (stereo not drawn) | 2.57 | 7.34 | – |
| CC(C)OC(=O)CSc1ncnc2c1cnn2Cc1ccccc1 | 8.22 | 19 | – |
| O=C(Nc1nnc(-c2ccc(Cl)cc2)o1)c1ccccc1Br | 1.12 | 3.35 | > 40 |
| Nc1ccc(-c2cc(-c3cccc(N)c3)nc(-c3ccccc3)n2)cc1 | – | – | > 40 |
| Cc1ccc(C)c(-c2cc(C(=O)Nc3sc(C)c(C)c3C(N)=O)c3ccccc3n2)c1 | – | – | > 40 |
| COc1ccc(-c2nc(NC(=O)c3cc(C(C)(C)C)nn3C)sc2C)cc1 | 4.42 | 8.83 | > 40 |
| O=C(Nc1nc(-c2ccccn2)cs1)c1cc2ccccc2o1 | 2.62 | 42.6 | > 40 |
| COc1cc(-c2ccc3oc(-c4ccsc4)c(C#CC4(O)CCCCC4)c3c2)cc(OC)c1OC | 3.77 | > 100 | > 40 |
| Cc1ccc(OC(=O)c2ccc(Br)o2)cc1 | 65.4 | > 100 | – |
| COc1cnc(-c2ccccn2)nc1Oc1ccc(F)cc1F | 19.1 | > 100 | > 40 |
| Cc1nc(SCc2cccc(F)c2)c2oc3ccccc3c2n1 | 0.588 | 18 | – |
| Cc1ccc(-c2ccc(SCC(=O)Nc3nonc3C)nn2)cc1 | 1.79 | 3.88 | – |
| OC(c1cc(-c2ccc(Cl)cc2)nc2ccccc12)C1CCCCN1 (stereo not drawn) | 4.52 | 13.5 | 7.35 |
| OC(CNCCC1C=Nc2ccccc21)Cn1c2ccc(Cl)cc2c2cc(Cl)ccc21 (stereo not drawn) | 1.82 | 2.03 | 5.96 |
| CC1CCCN(c2ccc([N+](=O)[O-])s2)C1 (stereo not drawn) | 5.81 | 6.36 | – |
| CCCn1c(=N)c(C(=O)NCc2ccc3c(c2)OCO3)cc2c(=O)n3cccc(C)c3nc21 | 19.6 | 31.7 | > 40 |

| Compound | IC50 [µM] | IC90 [µM] | CC50 [µM] |
| --- | --- | --- | --- |
| COC(=O)c1cccc(NC(=O)NC23CC4CC(CC(C4)C2)C3)c1 | 23.9 | > 100 | > 40 |
| Cc1ccccc1C(=O)N1CCc2cc(-c3nc(NC(=O)Cc4ccc5c(c4)OCO5)sc3C)ccc21 | – | – | > 40 |
| O=c1oc2ccccc2c(Nc2ccc3ccccc3c2)c1[N+](=O)[O-] | 7.32 | > 100 | > 40 |
| Cc1cc(Nc2ccccc2)n(-c2nc3ccccc3[nH]2)n1 | < 0.195 | 3.18 | > 40 |
| COc1ccc(/C=C2/Sc3ccc(C(=O)N4CCc5ccccc5C4)cc3NC2=O)cc1 | 20 | > 100 | > 40 |
| CCOC(=O)c1c(C)n(C)c2ccc(OC(C)C(=O)OC)cc12 (stereo not drawn) | 8.04 | 14.4 | – |
| CCCOC(=O)c1ccc(NC(=O)c2ccc(Br)o2)cc1 | 0.683 | 2.82 | – |
| O=C(c1ccccc1)N1CCN(c2ccc([N+](=O)[O-])cc2-n2cccc2)CC1 | 4.17 | 7.26 | > 40 |
| CCOC(=O)c1ccc(NC(=O)CCc2c(C)nc3ncnn3c2C)cc1 | – | > 100 | – |
| Cc1ccc2nc(Cl)c3nnnn3c2c1 | 11.9 | 17 | > 40 |
| O=C(Nc1nnc(-c2ccc3c(c2)CCCC3)o1)c1ccc(Cl)cc1Cl | 0.625 | 0.962 | > 40 |
| Oc1cccc2ccc(/C=C/c3ccc(Br)s3)nc12 | 2.56 | > 100 | 32.4 |
| CCCCOC(=O)Nc1ccc(C)c(Cl)c1 | – | > 100 | – |
| CC(=O)c1ccc(NC(=O)COC(=O)c2c3c(nc4ccccc24)/C(=C\c2cccs2)CCC3)cc1 | 0.449 | > 100 | 13.6 |
| N=C1SC(c2ccccc2)C(=O)N1c1ncc(Cc2ccccc2)s1 (stereo not drawn) | 26 | > 100 | 34.9 |
| Cc1ccc(C(=O)CC(=O)c2cc(Cl)ccc2O)cc1 | 3.48 | 4.67 | 20.2 |
| COc1ccc(-c2nsc(SCC(=O)NCC3CCCO3)n2)cc1 (stereo not drawn) | 2.25 | 5.2 | – |
| Cc1cc2ccccc2n1CCNC(=O)COc1ccc2ccccc2c1 | 52.5 | > 100 | – |
| Cc1cc(C)c2nc(/N=C(\N)NC(=O)Nc3ccccc3)nc(C)c2c1 | 4.02 | 5.93 | > 40 |
| Cn1cnc(Sc2ncnc3nc[nH]c23)c1[N+](=O)[O-] | 8.98 | 16.1 | – |
| CC1=Nc2ccccc2/C1=C\c1nc(-c2ccc(C(F)(F)F)cc2)oc1O | 1.71 | > 100 | > 40 |
| CC1CC(C)CN(C(=O)c2ccc(CNc3c(N4CCCC4)c(=O)c3=O)cc2)C1 (stereo not drawn) | 1.46 | 1.64 | – |
| Cc1cc(NCCCn2ccnc2)n2nc(C)c(-c3ccc(Cl)cc3)c2n1 | 4.03 | 5.75 | 12.9 |
| CCCOC(=O)c1ccc(NC(=O)COC)cc1 | 11.9 | > 100 | – |
| COc1ccc2nc(/N=C(\N)NC(=O)N3c4ccccc4Sc4ccccc43)nc(C)c2c1 | 28.5 | > 100 | > 40 |
| C/C(=C\C(=S)Nc1ccccc1)Nc1ccc2ccccc2c1 | 4.39 | 48.9 | > 40 |
| O=C(Cc1ccc([N+](=O)[O-])cc1)Nc1cc(C(F)(F)F)cc(C(F)(F)F)c1 | 0.369 | > 100 | 20.8 |

| Compound | IC50 [µM] | IC90 [µM] | CC50 [µM] |
| --- | --- | --- | --- |
| CCn1ccnc1CN(C)Cc1cn(-c2ccc(C)cc2)nc1-c1ccc(F)cc1 | 5.81 | 6.72 | > 40 |
| CCN1CCN(Cc2ccc(NC(=O)c3ccc(C)c(NC(=O)C(=O)c4c[nH]c5ccccc45)c3)cc2C(F)(F)F)CC1 | 4.32 | 5.57 | 6.73 |
| Cc1cc(NCc2ccccn2)n2ncc(-c3ccccc3)c2n1 | 4.82 | 7.62 | 31.4 |
| Cc1nc(-c2ccccn2)nc(SCC(=O)c2ccccc2)c1Cl | 3.68 | 6.49 | > 40 |
| CCSc1nnc(NC(=O)c2ccc3ccccc3n2)s1 | 0.628 | 2.19 | 38.1 |
| CC(C)(C)c1ccc(-c2cn(-c3ccc(Br)cc3)c3[n+]2CCCS3)cc1 | 2.62 | 4.97 | 13.3 |
| O=[N+]([O-])c1cc(CN2CCN(c3cccc(C(F)(F)F)c3)CC2)c2cccnc2c1O | 13.2 | > 100 | 1.49 |
| COc1cc(NC(=O)c2c(F)c(F)c(F)c(F)c2F)c(OC)cc1Cl | 0.738 | > 100 | > 40 |
| Cc1cc(C)n(-c2nc(N(c3ccccc3)c3ccccc3)nc(-n3nc(C)cc3C)n2)n1 | 2.76 | 10.4 | > 40 |
| O=C(c1ccc(CNc2c(N3CCCC3)c(=O)c2=O)cc1)N1CC=C(c2ccccc2)CC1 | 26.2 | > 100 | – |
| N=C(N)c1ccc(OCCCCCOc2ccc(C(=N)N)cc2)cc1 | 1.51 | 1.72 | > 40 |
| COc1ccc(-c2cc(C(=O)Nc3nc4ccccc4s3)c3ccccc3n2)cc1OC | 4.02 | > 100 | – |
| O=C(Nc1ncc(Cc2ccccc2)s1)C1=NCCN1 | 11.6 | > 100 | > 40 |
| Cc1cc(NC(=O)CSc2nnc(-c3ccccc3)o2)no1 | 5.7 | 10.1 | > 40 |
| CN(C)c1ccc(C(=O)Nc2nnc(-c3ccc(Cl)cc3)o2)cc1 | 0.895 | > 100 | > 40 |
| c1ccc(CN2CCC(Nc3nc(-c4cccs4)nc4ccccc34)CC2)cc1 | 4.78 | 6.93 | 17.5 |
| O=C(Nc1ccc(OC(F)(F)F)cc1)N1CCN(c2ccnc3cc(Cl)ccc23)CC1 | 3.08 | 3.51 | 8.59 |
| Cc1nn(Cc2ccccc2Cl)c2sc(C(=O)NCc3ccc4c(c3)OCO4)cc12 | 5.45 | 7.16 | – |
| Cc1cc(C2N=C(N)Nc3nc4ccccc4n32)c(C)n1-c1ccccc1Cl (stereo not drawn) | 7.61 | 12.2 | – |
| Cc1ccc(Oc2nc(CN3CCOCC3)nc3sc4c(c23)CCC(C)C4)cc1 (stereo not drawn) | 17.1 | 22.4 | > 40 |
| Cc1ccccc1-n1nnc2c(=O)oc3ccccc3c21 | 4.48 | > 100 | – |
| COc1ccc(CCNc2nc(N3CCCCC3)nc(N3CCCCC3)n2)cc1OC | 12.4 | 18.8 | > 40 |
| Cc1ccc2nc(N(CCCN(C)C)C(=O)c3ccc4c(c3)CCCC4)sc2c1 | 8.72 | 11.8 | 22.6 |
| CCOC(=O)CSc1nnc(-c2cccc(Br)c2)o1 | 0.486 | 15.2 | – |
| CC1CCCCN1C(=O)COC(=O)/C=C/c1ccc2ccccc2n1 (stereo not drawn) | 0.807 | 5.9 | > 40 |
